Assay results as given in the NIST ThermoML archive (doi:10.1016/j.jct.2018.02.022).
Numbers after ± are expanded uncertainties.

Assay: xn = mol fraction of the nth substance listed
Details: 92.3 kPa, Liquid; for viscosity: Concentric cylinders viscometry; for speed of sound: Frequency=3 MHz, Single path-length method; for mass density: Vibrating tube method

OCCOCCOCCO [triethylene glycol] + O
Details | mass density, 293.15 K [kg/m3] | mass density, 298.15 K [kg/m3] | speed of sound, 293.15 K [m/s] | speed of sound, 298.15 K [m/s] | viscosity, 293.15 K [mPa·s] | viscosity, 298.15 K [mPa·s]
x1 = 0.0101 | 1009.83 ± 3.2 | 1008.38 ± 3.2 | 1526.7 ± 1.8 | 1537.4 ± 1.8 | – | –
x1 = 0.0196 | 1019.71 ± 3.2 | 1017.88 ± 3.2 | 1563.3 ± 1.8 | 1571 ± 1.8 | – | –
x1 = 0.025 | 1024.91 ± 3.2 | 1023.1 ± 3.2 | – | – | 1.881 ± 0.26 | 1.524 ± 0.21
x1 = 0.029 | 1028.88 ± 3.2 | 1027.04 ± 3.2 | 1595.7 ± 1.8 | 1600.5 ± 1.8 | – | –
x1 = 0.0381 | 1036.74 ± 3.2 | 1034.7 ± 3.2 | 1622.5 ± 1.8 | 1625 ± 1.8 | – | –
x1 = 0.0489 | 1044.89 ± 3.3 | 1042.58 ± 3.3 | – | – | 2.921 ± 0.41 | 2.329 ± 0.33
x1 = 0.0496 | 1045.76 ± 3.3 | 1043.48 ± 3.3 | 1651.6 ± 1.8 | 1651.4 ± 1.8 | – | –
x1 = 0.0601 | 1053.18 ± 3.3 | 1050.7 ± 3.3 | 1673.8 ± 1.8 | 1671.4 ± 1.8 | – | –
x1 = 0.0689 | 1058.69 ± 3.3 | 1056.05 ± 3.3 | 1689 ± 1.8 | 1685.1 ± 1.8 | – | –
x1 = 0.0754 | 1062.23 ± 3.3 | 1059.51 ± 3.3 | – | – | 4.368 ± 0.61 | 3.456 ± 0.48
x1 = 0.0801 | 1065 ± 3.3 | 1062.2 ± 3.3 | 1704.9 ± 1.8 | 1699.4 ± 1.8 | – | –
x1 = 0.0905 | 1070.23 ± 3.3 | 1067.29 ± 3.3 | 1716.5 ± 1.8 | 1709.8 ± 1.8 | – | –
x1 = 0.0993 | 1074.35 ± 3.3 | 1071.33 ± 3.3 | – | – | 5.989 ± 0.84 | 4.677 ± 0.66
x1 = 0.0996 | 1074.38 ± 3.3 | 1071.33 ± 3.3 | 1724.7 ± 1.8 | 1716.9 ± 1.8 | – | –
x1 = 0.1479 | 1090.64 ± 3.3 | 1087.21 ± 3.3 | 1744.5 ± 1.8 | 1733.4 ± 1.8 | – | –
x1 = 0.15 | 1091.94 ± 3.3 | 1088.51 ± 3.3 | – | – | 10.19 ± 1.4 | 7.813 ± 1.1
x1 = 0.1993 | 1101.82 ± 3.3 | 1098.18 ± 3.3 | – | – | 14.46 ± 2 | 11.2 ± 1.6
x1 = 0.2004 | 1101.27 ± 3.3 | 1097.63 ± 3.3 | 1742 ± 1.8 | 1729.3 ± 1.8 | – | –
x1 = 0.2462 | 1107.12 ± 3.3 | 1103.39 ± 3.3 | 1732.1 ± 1.8 | 1718.8 ± 1.8 | – | –
x1 = 0.2526 | 1107.94 ± 3.3 | 1104.19 ± 3.3 | – | – | 19.41 ± 2.7 | 14.94 ± 2.1
x1 = 0.2998 | 1111.26 ± 3.3 | 1107.47 ± 3.3 | – | – | 23.57 ± 3.3 | 18.09 ± 2.5
x1 = 0.3004 | 1111.57 ± 3.3 | 1107.79 ± 3.3 | 1718.2 ± 1.8 | 1704.4 ± 1.8 | – | –
x1 = 0.3474 | 1114.22 ± 3.3 | 1110.41 ± 3.3 | 1706.1 ± 1.8 | 1692.1 ± 1.8 | – | –
x1 = 0.3539 | 1113.94 ± 3.3 | 1110.13 ± 3.3 | – | – | 27.83 ± 3.9 | 21.31 ± 3
x1 = 0.3948 | 1116.15 ± 3.3 | 1112.33 ± 3.3 | 1694.8 ± 1.9 | 1680.7 ± 1.9 | – | –
x1 = 0.4009 | 1115.83 ± 3.3 | 1112.01 ± 3.3 | – | – | 31.2 ± 4.4 | 23.85 ± 3.3
x1 = 0.4467 | 1117.71 ± 3.3 | 1113.88 ± 3.3 | 1683.9 ± 1.9 | 1669.6 ± 1.9 | – | –
x1 = 0.4492 | 1117.53 ± 3.3 | 1113.7 ± 3.3 | – | – | 34.1 ± 4.8 | 26.05 ± 3.6
x1 = 0.4992 | 1119.04 ± 3.3 | 1115.2 ± 3.3 | – | – | 36.67 ± 5.1 | 28.01 ± 3.9
x1 = 0.5021 | 1118.97 ± 3.3 | 1115.13 ± 3.3 | 1673.6 ± 1.9 | 1659.2 ± 1.9 | – | –
x1 = 0.548 | 1119.77 ± 3.3 | 1115.93 ± 3.3 | 1666.3 ± 1.9 | 1651.9 ± 1.9 | – | –
x1 = 0.5484 | 1120.2 ± 3.3 | 1116.36 ± 3.3 | – | – | 38.84 ± 5.4 | 29.68 ± 4.2
x1 = 0.5923 | 1120.43 ± 3.3 | 1116.59 ± 3.3 | 1660 ± 1.9 | 1645.4 ± 1.9 | – | –
x1 = 0.5996 | 1121.03 ± 3.3 | 1117.17 ± 3.3 | – | – | 40.64 ± 5.7 | 31.06 ± 4.4
x1 = 0.6442 | 1121.04 ± 3.3 | 1117.19 ± 3.3 | 1653.7 ± 1.9 | 1639.1 ± 1.9 | – | –
x1 = 0.6506 | 1121.46 ± 3.3 | 1117.6 ± 3.3 | – | – | 42.15 ± 5.9 | 32.21 ± 4.5
x1 = 0.701 | 1121.62 ± 3.3 | 1117.76 ± 3.3 | – | – | 43.67 ± 6.1 | 33.32 ± 4.7
x1 = 0.7095 | 1121.66 ± 3.3 | 1117.81 ± 3.3 | 1647 ± 1.9 | 1632.3 ± 1.9 | – | –
x1 = 0.7531 | 1122.03 ± 3.3 | 1118.17 ± 3.3 | 1642.9 ± 1.9 | 1628.1 ± 1.9 | – | –
x1 = 0.7567 | 1121.7 ± 3.3 | 1117.85 ± 3.3 | – | – | 44.87 ± 6.3 | 34.32 ± 4.8
x1 = 0.7859 | 1122.28 ± 3.3 | 1118.42 ± 3.3 | 1640.2 ± 2 | 1625.3 ± 2 | – | –
x1 = 0.8035 | 1121.91 ± 3.3 | 1118.05 ± 3.3 | – | – | 45.73 ± 6.4 | 34.99 ± 4.9
x1 = 0.8387 | 1122.62 ± 3.3 | 1118.75 ± 3.3 | 1636.5 ± 2 | 1621.5 ± 2 | – | –
x1 = 0.8406 | 1122.25 ± 3.3 | 1118.38 ± 3.3 | – | – | 46.36 ± 6.5 | 35.51 ± 5
x1 = 0.8981 | 1123.02 ± 3.3 | 1119.14 ± 3.3 | – | – | 46.96 ± 6.6 | 35.95 ± 5
x1 = 0.9031 | 1123.01 ± 3.3 | 1119.13 ± 3.3 | 1632.1 ± 2 | 1617 ± 2 | – | –
x1 = 0.9181 | 1123.08 ± 3.3 | 1119.2 ± 3.3 | 1631.3 ± 2 | 1616.2 ± 2 | – | –
x1 = 0.9344 | 1123.16 ± 3.3 | 1119.28 ± 3.3 | 1630.5 ± 2 | 1615.4 ± 2 | – | –
x1 = 0.9489 | 1123.57 ± 3.3 | 1119.68 ± 3.3 | – | – | 47.64 ± 6.7 | 36.46 ± 5.1
x1 = 0.9569 | 1123.28 ± 3.3 | 1119.39 ± 3.3 | 1629.2 ± 2 | 1614.1 ± 2 | – | –
x1 = 0.9782 | 1123.37 ± 3.3 | 1119.48 ± 3.3 | 1628.1 ± 2 | 1612.9 ± 2 | – | –
x1 = 1 | 1123.48 ± 3 | 1119.59 ± 3 | 1626.8 ± 2 | 1611.6 ± 2 | 48.06 ± 6.7 | 36.88 ± 5.2
